In ChEMBL document CHEMBL5338766, “X-ray Crystal Structure-Guided Discovery of Novel Indole Analogues as Colchicine-Binding Site Tubulin Inhibitors with Immune-Potentiating and Antitumor Effects against Melanoma” (J Med Chem, 2023):

Experiments:
[1] = test system: HepG2; assay: Induction of apoptosis in human HepG2 cells assessed as early apoptotic cells at 1 nM incubated for 48 hrs by Annexin V-FITC/PI staining based flow cytometric analysis (reference value: 7.01 %); format: functional
[2] = test system: HepG2; assay: Cell cycle arrest in human HepG2 cells assessed as accumulation of cells at S phase at 0.5 nM incubated for 48 hrs by RNaseA/PI staining based flow cytometric analysis (reference value: 23.81%); format: functional
[3] = test system: HepG2; assay: Cell cycle arrest in human HepG2 cells assessed as accumulation of cells at G1 phase at 1 nM incubated for 48 hrs by RNaseA/PI staining based flow cytometric analysis (reference value: 56.11%); format: functional
[4] = Toxicity in C57 mouse implanted with mouse B16-F10 cells assessed as pathological changes in kidney at 5 mg/kg, ip administered every day for 14 days by H&E staining based microscopic analysis; format: organism-based; settings: in vivo, 336 h, time 14 day
[5] = Half-life in Sprague-Dawley rat at 2 mg/kg, iv measured upto 12 hrs by UPLC-MS/ESI analysis; format: ADME, organism-based; settings: in vivo
[6] = test system: HepG2; assay: Antimigratory activity in human HepG2 cells assessed as reduction in recovery area at 5 nM incubated for 24 hrs by wound healing assay (reference value: 65.84%); format: functional; set-up: scale not given: the % may be the effect or the level left
[7] = Acute toxicity in C57 mouse assessed as survival rate at 51.2 mg/kg, po administered daily for 14 days relative to control; format: organism-based; settings: in vivo, time 14 day, read-out: Activity
[8] = test system: HepG2; assay: Induction of apoptosis in human HepG2 cells assessed as viable cells at 5 nM incubated for 48 hrs by Annexin V-FITC/PI staining based flow cytometric analysis (reference value: 87.6%); format: functional; settings: read-out: Activity
[9] = AUC(0 to t) in Sprague-Dawley rat at 2 mg/kg, iv measured upto 12 hrs by UPLC-MS/ESI analysis; format: ADME, organism-based; set-up: time < 12 hrs, dose 2 mg/kg, route iv; settings: in vivo
[10] = Clearance in Sprague-Dawley rat at 20 mg/kg, po measured upto 12 hrs by UPLC-MS/ESI analysis; format: ADME, organism-based; settings: in vivo
[11] = Cytotoxicity against HUVEC cells assessed as inhibition of cell proliferation incubated for 24 hrs by MTT assay; format: toxicity, cell-based; settings: human
[12] = Tmax in Sprague-Dawley rat at 20 mg/kg, po measured upto 12 hrs by UPLC-MS/ESI analysis; format: ADME, organism-based; settings: in vivo
[13] = Cmax in Sprague-Dawley rat at 2 mg/kg, iv measured upto 12 hrs by UPLC-MS/ESI analysis; format: ADME, organism-based; set-up: dose 2 mg/kg, time < 12 hrs, route iv; settings: in vivo
[14] = test system: B16-F10; assay: Antitumor immunity in C57 mouse implanted with mouse B16-F10 cells assessed as increase in CD3+ CD4+ helper T cells in tumor at 2.5 mg/kg, ip administered every day for 14 days in the presence of NP19 by flow cytometric analysis (reference value: 0.332%); format: functional; settings: time 14 day
[15] = Apparent volume of distribution in Sprague-Dawley rat at 20 mg/kg, po measured upto 12 hrs by UPLC-MS/ESI analysis; format: ADME, organism-based; settings: in vivo
[16] = test system: HepG2; assay: Cell cycle arrest in human HepG2 cells assessed as accumulation of cells at G2 phase at 0.5 nM incubated for 48 hrs by RNaseA/PI staining based flow cytometric analysis (reference value: 17.37%); format: functional
[17] = test system: HepG2; assay: Induction of apoptosis in human HepG2 cells assessed as necrotic cells at 5 nM incubated for 48 hrs by Annexin V-FITC/PI staining based flow cytometric analysis (reference value: 0.443%); format: functional
[18] = AUC(0 to infinity) in Sprague-Dawley rat at 2 mg/kg, iv measured upto 12 hrs by UPLC-MS/ESI analysis; format: ADME, organism-based; set-up: dose 2 mg/kg, time < 12 hrs, route iv; settings: in vivo
[19] = biological target: Tubulin (Homo sapiens) (UniProt P68371+Q9H4B7+P0DPH7+P68366+Q13509+Q71U36+P04350+Q3ZCM7+P07437+P68363+Q9BQE3+Q6PEY2+Q13885+Q9BVA1+Q9BUF5); assay: Disruption of microtubule network in human HepG2 cells cytosol incubated for 12 hrs by DAPI staining based fluorescence microscopic analysis; format: subcellular; settings: dose 0.5-5 nM
[20] = AUC (0 to infinity) in Sprague-Dawley rat at 20 mg/kg, po measured upto 12 hrs by UPLC-MS/ESI analysis; format: ADME, organism-based; set-up: dose 20 mg/kg, time < 12 hrs, route po; settings: in vivo
[21] = AUC (0 to t) in Sprague-Dawley rat at 20 mg/kg, po measured upto 12 hrs by UPLC-MS/ESI analysis; format: ADME, organism-based; set-up: time < 12 hrs, dose 20 mg/kg, route po; settings: in vivo
[22] = Apparent volume of distribution in Sprague-Dawley rat at 2 mg/kg, iv measured upto 12 hrs by UPLC-MS/ESI analysis; format: ADME, organism-based; settings: in vivo, read-out: Vz
[23] = test system: HepG2; assay: Cell cycle arrest in human HepG2 cells assessed as accumulation of cells at G2 phase at 5 nM incubated for 48 hrs by RNaseA/PI staining based flow cytometric analysis (reference value: 17.37%); format: functional
[24] = Acute toxicity in C57 mouse assessed as survival rate at 64 mg/kg, po administered daily for 14 days relative to control; format: organism-based; settings: in vivo, time 14 day, read-out: Activity
[25] = MRT (0 to t) in Sprague-Dawley rat at 20 mg/kg, po measured upto 12 hrs by UPLC-MS/ESI analysis; format: ADME, organism-based; settings: in vivo
[26] = Resistance index, ratio of IC50 for antiproliferative activity against paclitaxel resistant human A549/TxR cells to IC50 for antiproliferative activity against parental human A549S cells; format: functional
[27] = Toxicity in C57 mouse implanted with mouse B16-F10 cells assessed as pathological changes in liver at 5 mg/kg, ip administered every day for 14 days by H&E staining based microscopic analysis; format: organism-based; settings: in vivo, 336 h, time 14 day
[28] = test system: B16-F10; assay: Antitumor activity against mouse B16-F10 cells implanted in C57 mouse assessed as tumor growth inhibition at 5 mg/kg, ip administered every day for 14 days relative to control; format: functional; settings: B16-F10, 336 h, time 14 day, read-out: TGI
[29] = Half-life in Sprague-Dawley rat at 20 mg/kg, po measured upto 12 hrs by UPLC-MS/ESI analysis; format: ADME, organism-based; settings: in vivo
[30] = Acute toxicity in C57 mouse assessed as lethal dose administered orally daily for 14 days; settings: in vivo, route po, time 14 day
[31] = MRT (0 to infinity) in Sprague-Dawley rat at 20 mg/kg, po measured upto 12 hrs by UPLC-MS/ESI analysis; format: ADME, organism-based; settings: in vivo
[32] = Clearance in Sprague-Dawley rat at 2 mg/kg, iv measured upto 12 hrs by UPLC-MS/ESI analysis; format: ADME, organism-based; settings: in vivo
[33] = Cmax in Sprague-Dawley rat at 20 mg/kg, po measured upto 12 hrs by UPLC-MS/ESI analysis; format: ADME, organism-based; set-up: time < 12 hrs, dose 20 mg/kg, route po; settings: in vivo
[34] = Toxicity in C57 mouse implanted with mouse B16-F10 cells assessed as body weight loss at 2.5 mg/kg, ip administered every day for 14 days in the presence of NP19; format: organism-based; settings: in vivo, 336 h, time 14 day
[35] = test system: HepG2; assay: Induction of apoptosis in human HepG2 cells assessed as necrotic cells at 0.5 nM incubated for 48 hrs by Annexin V-FITC/PI staining based flow cytometric analysis (reference value: 0.443%); format: functional
[36] = test system: B16-F10; assay: Antitumor immunity in C57 mouse implanted with mouse B16-F10 cells assessed as increase in CD3+ CD4+ helper T cells in tumor at 5 mg/kg, ip administered every day for 14 days by flow cytometric analysis (reference value: 0.332%); format: functional; settings: time 14 day

SMILES: COc1cc(-c2nccc3[nH]c(-c4cccc5c4ccn5C)nc23)cc(OC)c1OC
- Activity [1]: 31.3%
- Activity [2]: 27.34%
- Activity [3]: 41.37%
- Activity [4]: Non-Toxic
- half-life [5]: 64.8 min
- Activity [6]: 22.16%
- survival at 336 h [7]: 90%
- viability at 0.005 µM [8]: 11%
- AUC(0-t) at 12 h [9]: 3060 ng·h/mL
- CL/F [10]: 107 mL/min/kg
- IC50 at 24 h [11]: 62.1 nM
- Tmax [12]: 55.2 min
- Cmax [13]: 1730 ng/mL
- Activity [14]: 2.35%
- Vz [15]: 16.84 L/kg
- Activity [16]: 20.73%
- Activity [17]: 0.201%
- AUC(0-inf) [18]: 3080 ng·h/mL
- Activity [19]: Dose-Dependent Effect
- AUC(0-inf) [20]: 3380 ng·h/mL
- AUC(0-t) at 12 h [21]: 3330 ng·h/mL
- Vd [22]: 1.08 L/kg
- Activity [23]: 55.89%
- survival at 336 h [24]: 60%
- MRT last at 12 h [25]: 3.06 h
- Ratio IC50 [26]: 1.8
- Activity [27]: Non-Toxic
- inhibition in vivo at 5 mg/kg [28]: 63%
- half-life [29]: 110 min
- LD50 at 336 h [30]: 66.9 mg/kg
- MRT inf [31]: 3.24 h
- clearance [32]: 11.2 mL/min/kg
- Cmax [33]: 879 ng/mL
- Activity [34]: Non-Toxic
- Activity [35]: 0.428%
- Activity [36]: 0.954%
